Results as given in US20220249599A1, “TREATMENT OF IMPLANTS WITH ENGINEERED ANTIMICROBIAL AMPHIPHILIC PEPTIDES” (priority 2018, published 2022).
In brackets after ≈: the same amount, converted by molar mass. Where two headings read alike, the source gives them in different places. Each block holds one compound with its values, some of them ahead of it.

Key:
[1] = test system: Acinetobacter baumannii ATCC BAA-1797 (MDR); assay: microbe, parasite or virus in culture; type: cell-based; conditions: ATCCBAA1797; Acinetobacter baumannii ATCC BAA-1797 (MDR); read-out: MIC
Protocol: Each peptide was formulated in PBS buffer prior to testing. Peptides of SEQ ID NO:5 and SEQ ID NO:8 were brought up in 100% DMSO with 0.002% polysorbate-80 at 1.28 mg/mL (40× the highest final test concentration of 32 mcg/mL). Final test concentration of DMSO was 2.5% in the assay at the first dilution for those two compounds.
Mueller Hinton II broth (MHB II; BD; Lot Nos. 6258541 and 7143896) was used for MIC testing of aerobic organisms. 0.002% polysorbate 80 (P80) was added to the test medium.
(§1) MIC values were determined using a broth microdilution procedure described by CLSI (1, 3). Automated liquid handlers (Multidrop 384, Labsystems, Helsinki, Finland; Biomek 2000 and Biomek FX, Beckman Coulter, Fullerton Calif.) were used to conduct serial dilutions and liquid transfers.
To prepare the drug mother plates, which would provide the serial peptide dilutions for the replicate daughter plates, the wells of columns 2-12 of standard 96-well microdilution plates (Costar 3795) were filled with 150 µl of the designated diluent for each row of peptide.
(§2) The test articles and comparator compounds ([…] at 40× the highest concentration to be tested) were dispensed into the appropriate wells in column 1. The Biomek 2000 was then used to make 2-fold serial dilutions in the mother plates from column 1 through column 11. The wells of Column 12 contained no drug and served as the organism growth control wells for the assay.
(§3) The daughter plates were loaded with 185 μL per well of MHB II using the Multidrop 384. The daughter plates were completed on the Biomek FX instrument which transferred 5 uL of peptide solution from each well of a mother plate to the corresponding well of each daughter plate in a single step. A standardized inoculum of each test organism was prepared per CLSI methods. The inoculum for each organism was dispensed into sterile reservoirs divided by length (Beckman Coulter), and the Biomek 2000 was used to inoculate the plates. Daughter plates were placed on the Biomek 2000 work surface in reverse orientation so that inoculation took place from low to high drug concentration.
(§4) Plates were stacked 3-4 high, covered with a lid on the top plate, placed in plastic bags, and incubated at 35° C. for 16 to 20 hrs. Following incubation, the microplates were removed from the incubator and viewed from the bottom using a plate viewer. […] The MIC was read and recorded as the lowest concentration of peptide that inhibited visible growth of the organism.

[2] = test system: Staphylococcus aureus (n = 104); assay: microbe, parasite or virus in culture; type: cell-based; conditions: Staphylococcus aureus (n = 104); for % R (isolates resistant): CLSI breakpoints
Protocol: (§5) The clinical isolates were obtained from USA hospitals. […] Plates were incubated at 35° C. overnight.

[3] = test system: Enterobacter spp. (n = 102); type: cell-based, Enterobacter aerogenes and E. cloacae; conditions: Enterobacter spp. (n = 102); for % R (isolates resistant): CLSI breakpoints, colistin EUCAST
Protocol: as §5

[4] = test system: Escherichia coli (n = 101); type: cell-based; conditions: Escherichia coli (n = 101), CLSI breakpoints, colistin EUCAST
Protocol: as §5

[5] = test system: Pseudomonas aeruginosa (n = 109); type: cell-based; conditions: Pseudomonas aeruginosa (n = 109), CLSI breakpoints
Protocol: as §5

[6] = test system: Acinetobacter spp. (n = 104); type: cell-based; conditions: Acinetobacter spp. (n = 104), CLSI breakpoints
Protocol: as §5

[7] = test system: Klebsiella pneumoniae (n = 101); type: cell-based
Protocol: as §5

[8] = test system: Enterococcus faecium (n = 104); assay: microbe, parasite or virus in culture; conditions: Enterococcus faecium (n = 104), CLSI breakpoints
Protocol: Comparator antibiotics were supplied by Micromyx, and stock solutions were prepared on the first day of testing using solvents recommended by CLSI (1). Stock solutions of all compounds were made at 40× the final testing concentration and stored at −80° C. prior to testing. Information regarding compound source, catalog and lot number, testing concentrations and drug diluent for the comparators and test agent are detailed below in Table 3.
The test organisms evaluated in this study consisted of clinical isolates from the Micromyx Repository and reference isolates from the American Type Culture Collection (ATCC; Manassas, Va.). The clinical isolates were obtained from USA hospitals. Upon initial receipt at Micromyx, the organisms were sub-cultured onto an appropriate agar medium. Following incubation, colonies were harvested from these plates and cell suspensions prepared and frozen at −80° C. with a cryoprotectant. Prior to testing, the isolates were streaked from frozen vials onto Trypticase Soy Agar with 5% sheep blood (Becton Dickenson [BD]; Sparks, MD; Lot Nos. 7173618, 7166759, 7208688, 72144895, 7228505 and Remel Lenexa, Kans. Lot No. 212574). Plates were incubated at 35° C. overnight.
Mueller Hinton II broth (MHB II; BD; Lot Nos. 6258541 and 7143896) was used for MIC testing of aerobic organisms.
as §1
as §2, with “To prepare the drug mother plates, which would provide the serial drug dilutions for the replicate daughter plates, the wells of columns 2-12 of standard 96-well microdilution plates (Costar 3795) were filled with 150 µl of the designated diluent for each row of drug. The test” for “The test”
as §3, with “[…]” for “μL”, “µL” for “uL”, “drug” for “peptide”, “methods (1).” for “methods.”
as §4, with “drug” for “peptide”
Clinical breakpoints to determine percent resistance within a given organism group were obtained from CLSI (3), with the exception of colistin for K. pneumoniae, Enterobacter spp., and E. coli, which are only available from EUCAST.

[9] = Klebsiella pneumoniae (n = 101), CLSI breakpoints, colistin EUCAST

SMILES: C[C@H]1COc2c(N3CCN(C)CC3)c(F)cc3c(=O)c(C(=O)O)cn1c23 [Levofloxacin]
MIC [1]: 4 µg/mL (≈ 11.1 µM)
MIC90 [2]: >8 µg/mL
% R (isolates resistant) [2]: 82.7%
% R (isolates resistant) ([2]; listed as levofloxacin): Over 80%
% R (isolates resistant) [3]: 4.9%
% R (isolates resistant) [4]: 46.5%
% R (isolates resistant) ([4]; listed as levofloxacin): ~50%
% R (isolates resistant) [5]: 21.1%
% R (isolates resistant) [6]: 66.3%
% R (isolates resistant) [7]: over 60%
% R (isolates resistant) [7, 9]: 67.3%

MIC range ([2]; all methicillin-resistant): 0.06 to 8 µg/mL
SMILES: C[C@H]1c2cccc(O)c2C(=O)C2=C(O)[C@]3(O)C(=O)C(C(N)=O)=C(O)[C@@H](N(C)C)[C@@H]3[C@@H](O)[C@@H]21 [Doxycycline]
% R (isolates resistant) [8]: 25%
% R (isolates resistant) [2]: 0%

SMILES: CCC[C@@H]1C[C@@H](C(=O)N[C@@H]([C@H]2O[C@H](SC)[C@H](O)[C@@H](O)[C@H]2O)[C@H](C)Cl)N(C)C1 [Clindamycin]
MIC90 [2]: >16 µg/mL
% R (isolates resistant) [2]: 37.5%

MIC range [3]: 0.12 to 64 µg/mL
SMILES: NC[C@H]1O[C@H](O[C@H]2[C@H](O)[C@@H](O[C@H]3O[C@H](CO)[C@@H](O)[C@H](N)[C@H]3O)[C@H](N)C[C@@H]2N)[C@H](N)C[C@@H]1O [Tobramycin]
% R (isolates resistant) [3]: 3.9%
% R (isolates resistant) [4]: 21.7%
% R (isolates resistant) [5]: 7.4%
% R (isolates resistant) [6]: 49.0%
% R (isolates resistant) [7]: over 60%
% R (isolates resistant) [7, 9]: 59.4%

SMILES: CC(C)(O/N=C(\C(=O)N[C@@H]1C(=O)N2C(C(=O)[O-])=C(C[n+]3ccccc3)CS[C@H]12)c1csc(N)n1)C(=O)O [Ceftazidime]
% R (isolates resistant) [3]: 36.3%
% R (isolates resistant) [4]: 33.6%
% R (isolates resistant) [5]: 14.6%
% R (isolates resistant) [6]: 61.5%
